{
  "source": "paper PMC5418711",
  "about": "“Safety and efficacy of the choline analogue SAR97276 for malaria treatment: results of two phase 2, open-label, multicenter trials in African patients” (Malaria Journal, 2017)",
  "key": {"P. falciparum": {"tested_on": "P. falciparum", "experiment": "Study 2: phase 2 randomized controlled trial, efficacy in teenagers with uncomplicated falciparum malaria", "type": "in vivo, Plasmodium falciparum", "settings": "for Median PRR (parasite reduction ratio: parasitemia at baseline/parasitemia at 72 h): N=8, at 72 h", "description": "The study was designed to enroll up to 180 participants. A randomized, controlled, age de-escalating trial design was applied in Study 2 to assess SAR97276A as a 3-day regimen administered IM to underage malaria patients. […] The study was planned to be conducted first in teenagers (age 12–17 years) and then in children (age 2–11 years).\nStudy 2 only enrolled uncomplicated malaria patients with P. falciparum ≥2000 parasites/µL. Two age groups were planned: Teenager aged 12–17 years and children aged 2–11 years. SAR97276A was planned to be administered only by IM injection.\nStudy duration and follow-up In both studies, study duration was 28 days for each patient including a screening period of up to 12 h before inclusion into the study. Participants were hospitalized for at least 3 days (72 h) after the start of treatment. Follow-up visits were done on day 6, 8, 14 ± 2, 21 ± 2, 28 ± 2 (Study 1); and day 7, 14 ± 2, 21 ± 2, 28 ± 2 (Study 2). Patient examination Fever measurements and thick blood smears were done every 6 h until 72 h and at each follow-up visit. Parasitemia was determined microscopically by Giemsa stained thick blood smear by two trained microscopists blinded to each other. […] Laboratory tests including hematology, biochemistry and urine analysis were done at baseline, day 2, 4, 28 (Study 1), or baseline, day 2, 4, 14, 28 (Study 2); vital signs were recorded at baseline, every 6 h until 72 h and on each follow up visit. An electrocardiogram (ECG) was done at baseline, day 4, 28 (Study 1), or baseline, 48 h, 72 h, day 28 (Study 2). For Study 2 respiratory parameters (respiratory rate, peak flow, efficiency of cough) were also checked at baseline and 30 min after first dose on day 1, 2 and 3.\nPrimary endpoint consisted of two criteria: (1) parasite clearance at 72 h analyzed by thick blood smear and (2) measurement of parasite reduction ratio (PRR: parasitemia at baseline/parasitemia at 72 h).\nSample size was calculated based on the parasite reduction ratio (PRR). Details are described in the supplementary information (see Additional file 4). PRR was calculated by: parasitemia at baseline/parasitemia at 72 h. For patients who prematurely discontinued study treatment the parasitemia at 72 h was replaced by last measurement of parasitemia or last measurement before rescue therapy for calculation of PRR at 72 h.\nParasite clearance time (PCT), PC50 and PC90 were calculated by Kaplan–Meier method. Interim analysis was to be performed following completion of each cohort.\nStudy 2: The patients were monitored up to day 28. […] The current available recommended rescue therapy as recommended by local guidelines was given. Treatment failures were described as early and late treatment failures.\nLate treatment failure was defined as development of severe malaria after day 3 after first study drug administration in presence of parasitemia, and /or parasitemia on day 4 - 14 with axillary temperature ≥ 37.5°C, and /or any additional antimalarial therapy not specified in the study protocol."}, "[1]": {"settings": "ref unpublished data owned by Sanofi, cited from earlier work"}, "[2]": {"settings": "Group 2A: 3 days IM once daily 0.5 mg/kg, N=8"}, "[3]": {"settings": "Group 2B: 3 days IM twice daily 0.25 mg/kg, N=8"}, "[4]": {"settings": "after single IM administration of 36 mg, phase 1"}},
  "note": "Where “and” joins values, the source holds several entries; their conditions need not be identical. Equal values may be shown once.",
  "data": [
    {"compound": "Cc1c(CCO)sc[n+]1CCCCCCCCCCCC[n+]1csc(CCO)c1C", "note": "[SAR97276A]", "values": [
      {"measurement": "Early treatment failures", "setting": "P. falciparum; [2]", "result": 4},
      {"measurement": "Late treatment failures", "setting": "P. falciparum; [2]", "result": 3},
      {"measurement": "Patients classified as treatment failures", "setting": "P. falciparum; [2]", "result": "7/8"},
      {"measurement": "Patients who received rescue treatment during the trial", "setting": "P. falciparum; [2]", "result": "8/8"},
      {"measurement": "Median PRR (parasite reduction ratio: parasitemia at baseline/parasitemia at 72 h)", "setting": "P. falciparum; Group 2A: 3 days IM once daily 0.5 mg/kg", "result": "22.5 (0.4–6280.0)"},
      {"measurement": "Parasitemia between 6 and 12 h after the start of treatment", "setting": "P. falciparum; Group 2A: 3 days IM once daily 0.5 mg/kg, not seen in the other groups", "result": "Increase of parasitemia"},
      {"measurement": "Early treatment failures", "setting": "P. falciparum; [3]", "result": 4},
      {"measurement": "Late treatment failures", "setting": "P. falciparum; [3]", "result": 1},
      {"measurement": "Patients classified as treatment failures", "setting": "P. falciparum; [3]", "result": "5/8"},
      {"measurement": "Patients who received rescue treatment during the trial", "setting": "P. falciparum; Group 2B: 3 days IM twice daily 0.25 mg/kg, N=8, 0.25 mg/kg", "result": "5 out of 8 and 5/8"},
      {"measurement": "Median PRR (parasite reduction ratio: parasitemia at baseline/parasitemia at 72 h)", "setting": "P. falciparum; Group 2B: 3 days IM twice daily 0.25 mg/kg", "result": "12.0 (0.3–83.1)"},
      {"measurement": "Terminal half-life in plasma", "setting": "[1]; [4]", "result": 5.5, "unit": "h"},
      {"measurement": "Terminal half-life in whole blood", "setting": "[1]; [4]", "result": 73, "unit": "h"},
      {"measurement": "Participants with an AE of severe intensity (ophthalmologic problems, temporary decrease in visual acuity), considered drug related", "setting": "[1]; multiple administrations of 18 mg twice daily IM, phase 1", "result": "one"},
      {"measurement": "Participants with AEs of severe intensity (severe abdominal spasm)", "setting": "[1]; multiple doses of 12.8 mg IV, phase 1", "result": "two"},
      {"measurement": "Highest tolerated dose for twice daily IM administration for 3 days", "setting": "[1]; phase 1", "result": 18, "unit": "mg"},
      {"measurement": "Tolerability in three phase 1 clinical trials", "setting": "[1]; single doses 0.2–12.8 mg IV, 3.2–36 mg IM", "result": "well tolerated"}
    ]}
  ]
}
